# Assay results: ChEMBL document CHEMBL1124763, “Nucleoside conjugates. 11. Synthesis and antitumor activity of 1-beta-D-arabinofuranosylcytosine and cytidine conjugates of thioether lipids” (1990)
# How the values were obtained:
# [1] = tested on: Mus musculus; experiment: Range of survival days for antitumor activity against Ip implanted L1210 / 0 lymphoid leukemia in mice at a dose of 400 mg/kg per day after treatment 1;range is 9->45; assay type: functional; conditions: route intraperitoneal
# [2] = tested on: Mus musculus; experiment: Survival time treated for antitumor activity against Ip implanted L1210 / 0 lymphoid leukemia in mice at a dose of 400 mg/kg per day after treatment -1;21.5/7; conditions: route intraperitoneal
# [3] = tested on: Mus musculus; experiment: Increase of life span was determined against Ip implanted L1210 / 0 lymphoid leukemia in mice at a dose of 200 mg/kg per day after treatment 5; assay type: functional; conditions: L1210/0, ip, route intraperitoneal
# [4] = tested on: Mus musculus; experiment: Increase of life span was determined against Ip implanted L1210 / 0 lymphoid leukemia in mice at a dose of 60 mg/kg per day after treatment 1-5; assay type: functional; conditions: L1210/0, ip, route intraperitoneal
# [5] = tested on: Mus musculus; experiment: Median survival time for antitumor activity against Ip implanted L1210 / 0 lymphoid leukemia in mice at a dose of 300 mg/kg per day after treatment 1,15; conditions: route intraperitoneal
# [6] = tested on: Mus musculus; experiment: Range of survival days for antitumor activity against Ip implanted L1210 / 0 lymphoid leukemia in mice at a dose of 300 mg/kg per day after treatment 1;range is 18->45; assay type: functional; conditions: route intraperitoneal
# [7] = tested on: Mus musculus; experiment: Range of survival days for antitumor activity against Ip implanted L1210 / 0 lymphoid leukemia in mice at a dose of 300 mg/kg per day after treatment 1,15;range is 21->45; assay type: functional; conditions: route intraperitoneal
# [8] = tested on: Mus musculus; experiment: Increase of life span was determined against Ip implanted L1210 / ara-C (I) lymphoid leukemia in mice at a dose of 133 mg/kg per day; assay type: functional; conditions: route intraperitoneal
# [9] = tested on: Mus musculus; experiment: Survival time of treated mice for antitumor activity against Ip implanted L1210 / 0 lymphoid leukemia in mice at a dose of 400 mg/kg per day after treatment 1;29.5/7; conditions: route intraperitoneal
# [10] = tested on: Mus musculus; experiment: Range of survival days for antitumor activity against Ip implanted L1210 / 0 lymphoid leukemia in mice at a dose of 400 mg/kg per day after treatment 2;range is 12-26; assay type: functional; conditions: route intraperitoneal
# [11] = tested on: Mus musculus; experiment: Increase of life span was determined against Ip implanted L1210 / 0 lymphoid leukemia in mice at a dose of 400 mg/kg per day after treatment 1; assay type: functional; conditions: L1210/0, ip, route intraperitoneal
# [12] = tested on: Mus musculus; experiment: Median survival time for antitumor activity against Ip implanted L1210 / ara-C (I) lymphoid leukemia in mice at a dose of 80 mg/kg per day; conditions: route intraperitoneal
# [13] = tested on: Mus musculus; experiment: Range of survival days for antitumor activity against Ip implanted L1210 / 0 lymphoid leukemia in mice at a dose of 400 mg/kg per day after treatment -1;range is 12->45; assay type: functional; conditions: route intraperitoneal
# [14] = tested on: Mus musculus; experiment: Increase of life span was determined against Ip implanted L1210 / 0 lymphoid leukemia in mice at a dose of 100 mg/kg per day after treatment 1,5,9; assay type: functional; conditions: L1210/0, ip, route intraperitoneal
# [15] = tested on: Mus musculus; experiment: Survival time treated/survival time tested (T/C) for antitumor activity against Ip implanted L1210 / ara-C (II) lymphoid leukemia in mice at a dose of 300 mg/kg per day; assay type: functional; conditions: route intraperitoneal
# [16] = tested on: Mus musculus; experiment: Range of survival days for antitumor activity against Ip implanted L1210 / 0 lymphoid leukemia in mice at a dose of 200 mg/kg per day after treatment 1;range is 24->45; assay type: functional; conditions: route intraperitoneal
# [17] = tested on: Mus musculus; experiment: Range of survival days for antitumor activity against Ip implanted L1210 / 0 lymphoid leukemia in mice at a dose of 100 mg/kg per day after treatment 1,8,15,22;range is 16-32; assay type: functional; conditions: route intraperitoneal
# [18] = tested on: Mus musculus; experiment: Increase of life span was determined against Ip implanted L1210 / 0 lymphoid leukemia in mice at a dose of 300 mg/kg per day after treatment 1,15; assay type: functional; conditions: L1210/0, ip, route intraperitoneal
# [19] = tested on: Mus musculus; experiment: Survival time treated for antitumor activity against Ip implanted L1210 / 0 lymphoid leukemia in mice at a dose of 200 mg/kg per day after treatment 1,15;27.5/7; conditions: route intraperitoneal
# [20] = tested on: Mus musculus; experiment: Increase of life span was determined against Ip implanted L1210 / 0 lymphoid leukemia in mice at a dose of 200 mg/kg per day after treatment 1,15; assay type: functional; conditions: L1210/0, ip, route intraperitoneal
# [21] = tested on: Mus musculus; experiment: Survival time treated for antitumor activity against Ip implanted L1210 / 0 lymphoid leukemia in mice at a dose of 400 mg/kg per day;>42.5/7; conditions: route intraperitoneal
# [22] = tested on: Mus musculus; experiment: Increase of life span was determined against Ip implanted L1210 / ara-C (I) lymphoid leukemia in mice at a dose of 400 mg/kg per day; assay type: functional; conditions: route intraperitoneal
# [23] = tested on: Mus musculus; experiment: Increase of life span was determined against Ip implanted L1210 / ara-C (II) lymphoid leukemia in mice at a dose of 300 mg/kg per day; assay type: functional; conditions: route intraperitoneal
# [24] = tested on: Mus musculus; experiment: Survival time treated for antitumor activity against Ip implanted L1210 / 0 lymphoid leukemia in mice at a dose of 200 mg/kg per day after treatment 1,8,15,22;24.5/7; conditions: route intraperitoneal
# [25] = tested on: Mus musculus; experiment: Increase of life span was determined against Ip implanted L1210 / 0 lymphoid leukemia in mice at a dose of 400 mg/kg per day after treatment 5; assay type: functional; conditions: L1210/0, ip, route intraperitoneal
# [26] = tested on: Mus musculus; experiment: Increase of life span was determined against Ip implanted L1210 / 0 lymphoid leukemia in mice at a dose of 200 mg/kg per day after treatment 1,8,15,22; assay type: functional; conditions: L1210/0, ip, route intraperitoneal
# [27] = tested on: Mus musculus; experiment: Increase of life span was determined against Ip implanted L1210 / 0 lymphoid leukemia in mice at a dose of 100 mg/kg per day after treatment 1,8,15,22; assay type: functional; conditions: L1210/0, ip, route intraperitoneal
# [28] = tested on: Mus musculus; experiment: Survival time treated for antitumor activity against Ip implanted L1210 / 0 lymphoid leukemia in mice at a dose of 60 mg/kg per day after treatment 1-5;31/8; conditions: route intraperitoneal
# [29] = tested on: Mus musculus; experiment: Range of survival days for antitumor activity against Ip implanted L1210 / 0 lymphoid leukemia in mice at a dose of 200 mg/kg per day after treatment 1,8,15,22;range is 14->45; assay type: functional; conditions: route intraperitoneal
# [30] = tested on: Mus musculus; experiment: Range of survival days for antitumor activity against Ip implanted L1210 / 0 lymphoid leukemia in mice at a dose of 400 mg/kg per day after treatment 5;range is 12-16; assay type: functional; conditions: route intraperitoneal
# [31] = tested on: Mus musculus; experiment: Median survival time for antitumor activity against Ip implanted L1210 / ara-C (I) lymphoid leukemia in mice at a dose of 133 mg/kg per day; conditions: route intraperitoneal
# [32] = tested on: Mus musculus; experiment: Range of survival days for antitumor activity against Ip implanted L1210 / ara-C(I) lymphoid leukemia in mice at a dose of 80 mg/kg per day; assay type: functional; conditions: route intraperitoneal
# [33] = tested on: Mus musculus; experiment: Survival time treated for antitumor activity against Ip implanted L1210 / 0 lymphoid leukemia in mice at a dose of 300 mg/kg per day after treatment 1;33/7; conditions: route intraperitoneal
# [34] = tested on: Mus musculus; experiment: Increase of life span was determined against Ip implanted L1210 / 0 lymphoid leukemia in mice at a dose of 400 mg/kg per day after treatment -1; assay type: functional; conditions: L1210/0, ip, route intraperitoneal
# [35] = tested on: Mus musculus; experiment: Range of survival days for antitumor activity against Ip implanted L1210 / ara-C (II) lymphoid leukemia in mice at a dose of 300 mg/kg per day; assay type: functional; conditions: route intraperitoneal
smiles,measurement,setting,value
CCCCCCCCCCCCCCCCCCSCC(COP(=O)(O)OP(=O)(O)OC[C@H]1O[C@@H](n2ccc(N)nc2=O)[C@@H](O)[C@@H]1O)OC(=O)CCCCCCCCCCCCCCC (mixture of isomers),Range of survival days,[1],>9
same,survival time,[2],21.5 days
same,ILS at 200 mg/kg/day,[3],114%
same,ILS at 60 mg/kg/day,[4],288%
same,median survival time,[5],24.5 days
same,Range of survival days,[6],>18
same,Range of survival days,[7],>21
same,ILS at 133 mg/kg/day,[8],> 350%
same,survival time,[9],29.5 days
same,Range of survival days,[10],12
same,ILS at 400 mg/kg/day,[11],321%
same,median survival time,[12],> 45 days
same,Range of survival days,[13],>12
same,ILS at 100 mg/kg/day,[14],213%
same,median survival time,[15],9 days
same,Range of survival days,[16],>24
same,Range of survival days,[17],16
same,ILS at 300 mg/kg/day,[18],243%
same,survival time,[19],27.5 days
same,ILS at 200 mg/kg/day,[20],293%
same,survival time,[21],> 42.5 days
same,ILS at 400 mg/kg/day,[22],> 350%
same,ILS at 300 mg/kg/day,[23],0%
same,survival time,[24],24.5 days
same,ILS at 400 mg/kg/day,[25],107%
same,ILS at 200 mg/kg/day,[26],250%
same,ILS at 100 mg/kg/day,[27],243%
same,survival time,[28],31 days
same,Range of survival days,[29],>14
same,Range of survival days,[30],12
same,median survival time,[31],> 45 days
same,Range,[32],>25
same,survival time,[33],33 days
same,ILS at 400 mg/kg/day,[34],207%
same,Range,[35],8
